PubChem BioAssay AID2060606 (Molecular Pharmacology Branch, DTP, NCI, 2025)

Test system: 922993-354-T-J3-PDC complex spheroids, viability, % test/control
Test: Anticancer human tumor 922993-354-T-J3-PDC patient-derived endometrial carcinoma cell line growth inhibition [CLK]
Details: for IC50: curve of first compound; for viability, T/C: stronger effect = lower value
Procedure, shortened: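 Multi-cell-type spheroids combined patient-derived tumor cells with HUVEC endothelial cells and human mesenchymal stem cells. Paired agents were dosed in half-log steps down from about clinical Cmax, or from 10 microM where Cmax was unknown.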

[1] = second compound 0.0316 µM, first compound 0.0316 µM
[2] = second compound 0.0316 µM, first compound 0.1 µM
[3] = second compound 0.0316 µM, first compound 0.316 µM
[4] = second compound 0.0316 µM, first compound 1 µM
[5] = second compound 0.0316 µM, first compound 3.16 µM
[6] = second compound 0.0316 µM, first compound 10 µM
[7] = second compound 0.1 µM, first compound 0.0316 µM
[8] = second compound 0.1 µM, first compound 0.1 µM
[9] = second compound 0.1 µM, first compound 0.316 µM
[10] = second compound 0.1 µM, first compound 1 µM
[11] = second compound 0.1 µM, first compound 3.16 µM
[12] = second compound 0.1 µM, first compound 10 µM
[13] = second compound 0.316 µM, first compound 0.0316 µM
[14] = second compound 0.316 µM, first compound 0.1 µM
[15] = second compound 0.316 µM, first compound 0.316 µM
[16] = second compound 0.316 µM, first compound 1 µM
[17] = second compound 0.316 µM, first compound 3.16 µM
[18] = second compound 0.316 µM, first compound 10 µM
[19] = second compound 1 µM, first compound 0.0316 µM
[20] = second compound 1 µM, first compound 0.1 µM
[21] = second compound 1 µM, first compound 0.316 µM
[22] = second compound 1 µM, first compound 1 µM
[23] = second compound 1 µM, first compound 3.16 µM
[24] = second compound 1 µM, first compound 10 µM
[25] = second compound 3.16 µM, first compound 0.0316 µM
[26] = second compound 3.16 µM, first compound 0.1 µM
[27] = second compound 3.16 µM, first compound 0.316 µM
[28] = second compound 3.16 µM, first compound 1 µM
[29] = second compound 3.16 µM, first compound 3.16 µM
[30] = second compound 3.16 µM, first compound 10 µM
[31] = second compound 10 µM, first compound 0.0316 µM
[32] = second compound 10 µM, first compound 0.1 µM
[33] = second compound 10 µM, first compound 0.316 µM
[34] = second compound 10 µM, first compound 1 µM
[35] = second compound 10 µM, first compound 3.16 µM
[36] = second compound 10 µM, first compound 10 µM
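Further: spheroids exposed to the agents for 7 days before readout.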

`C=CC(=O)Nc1cc(Nc2nccc(-c3cn(C)c4ccccc34)n2)c(OC)cc1N(C)CCN(C)C` + CNC(=O)c1ccc(Nc2nc(OC3CCCC3)c3c(-c4ccc5nc(C)oc5c4)c[nH]c3n2)c(OC)c1 showed an IC50 (second compound 0.0316 µM) greater than 300 nM, an IC50 (second compound 0.1 µM) greater than 300 nM and an IC50 (second compound 0.316 µM) greater than 300 nM. The IC50 (second compound 1 µM) was less than 0.949 nM, the IC50 (second compound 3.16 µM) was less than 0.949 nM and the IC50 (second compound 10 µM) was less than 0.949 nM. It also gave a viability, T/C (second compound 0.0316 µM, first compound 0.000949 µM) of 106%, a viability, T/C (second compound 0.0316 µM, first compound 0.003 µM) of 105% and a viability, T/C (second compound 0.0316 µM, first compound 0.00949 µM) of 106%. The viability, T/C (second compound 0.0316 µM, first compound 0.03 µM) was 102%, the viability, T/C (second compound 0.0316 µM, first compound 0.0949 µM) was 96.9% and the viability, T/C (second compound 0.0316 µM, first compound 0.3 µM) was 89.2%. For the same compound, the viability, T/C (second compound 0.1 µM, first compound 0.000949 µM) was 97.5%, the viability, T/C (second compound 0.1 µM, first compound 0.003 µM) was 107% and the viability, T/C (second compound 0.1 µM, first compound 0.00949 µM) was 96.4%. It also gave a viability, T/C (second compound 0.1 µM, first compound 0.03 µM) of 98.3%, a viability, T/C (second compound 0.1 µM, first compound 0.0949 µM) of 91.2% and a viability, T/C (second compound 0.1 µM, first compound 0.3 µM) of 86%. The viability, T/C (second compound 0.316 µM, first compound 0.000949 µM) was 70.7%, the viability, T/C (second compound 0.316 µM, first compound 0.003 µM) was 58.9% and the viability, T/C (second compound 0.316 µM, first compound 0.00949 µM) was 55.5%. The viability, T/C (second compound 0.316 µM, first compound 0.03 µM) was 42%, the viability, T/C (second compound 0.316 µM, first compound 0.0949 µM) was 57.1% and the viability, T/C (second compound 0.316 µM, first compound 0.3 µM) was 51.2%. The viability, T/C (second compound 1 µM, first compound 0.000949 µM) was 37.5%, the viability, T/C (second compound 1 µM, first compound 0.003 µM) was 34.9% and the viability, T/C (second compound 1 µM, first compound 0.00949 µM) was 41.9%. For the same compound, the viability, T/C (second compound 1 µM, first compound 0.03 µM) was 42%, the viability, T/C (second compound 1 µM, first compound 0.0949 µM) was 34.6% and the viability, T/C (second compound 1 µM, first compound 0.3 µM) was 35.5%. It also gave a viability, T/C (second compound 3.16 µM, first compound 0.000949 µM) of 35.8%, a viability, T/C (second compound 3.16 µM, first compound 0.003 µM) of 33% and a viability, T/C (second compound 3.16 µM, first compound 0.00949 µM) of 34%. For the same compound, the viability, T/C (second compound 3.16 µM, first compound 0.03 µM) was 34.6%, the viability, T/C (second compound 3.16 µM, first compound 0.0949 µM) was 34% and the viability, T/C (second compound 3.16 µM, first compound 0.3 µM) was 29.9%. For the same compound, the viability, T/C (second compound 10 µM, first compound 0.000949 µM) was 26.8%, the viability, T/C (second compound 10 µM, first compound 0.003 µM) was 29.7% and the viability, T/C (second compound 10 µM, first compound 0.00949 µM) was 30%. For the same compound, the viability, T/C (second compound 10 µM, first compound 0.03 µM) was 30.2%, the viability, T/C (second compound 10 µM, first compound 0.0949 µM) was 29% and the viability, T/C (second compound 10 µM, first compound 0.3 µM) was 32.5%.
`CC(Nc1ccc2c(c1)OCCn1cc(N3C(=O)OCC3C(F)F)nc1-2)C(N)=O` (stereo not drawn) + CNC(=O)c1ccc(Nc2nc(OC3CCCC3)c3c(-c4ccc5nc(C)oc5c4)c[nH]c3n2)c(OC)c1 was tested, and the IC50 (second compound 0.0316 µM) was 3780 nM, the IC50 (second compound 0.1 µM) was 4180 nM and the IC50 (second compound 0.316 µM) was 1960 nM. The IC50 (second compound 1 µM) was less than 31.6 nM, the IC50 (second compound 3.16 µM) was less than 31.6 nM and the IC50 (second compound 10 µM) was less than 31.6 nM. It also gave a viability, T/C [1] of 116%, a viability, T/C [2] of 106% and a viability, T/C [3] of 84.8%. For the same compound, the viability, T/C [4] was 70.6%, the viability, T/C [5] was 57% and the viability, T/C [6] was 31.7%. The viability, T/C [7] was 108%, the viability, T/C [8] was 102% and the viability, T/C [9] was 99.5%. It also gave a viability, T/C [10] of 74.5%, a viability, T/C [11] of 55.9% and a viability, T/C [12] of 37%. For the same compound, the viability, T/C [13] was 71.7%, the viability, T/C [14] was 69.3% and the viability, T/C [15] was 77.6%. It also gave a viability, T/C [16] of 63.8%, a viability, T/C [17] of 40% and a viability, T/C [18] of 31.8%. The viability, T/C [19] was 39.8%, the viability, T/C [20] was 36.5% and the viability, T/C [21] was 26.4%. The viability, T/C [22] was 23.1%, the viability, T/C [23] was 15.2% and the viability, T/C [24] was 10.8%. For the same compound, the viability, T/C [25] was 35.1%, the viability, T/C [26] was 27.4% and the viability, T/C [27] was 24%. For the same compound, the viability, T/C [28] was 16.3%, the viability, T/C [29] was 12.3% and the viability, T/C [30] was 10.8%. It also gave a viability, T/C [31] of 28.9%, a viability, T/C [32] of 27.2% and a viability, T/C [33] of 21.5%. The viability, T/C [34] was 17.6%, the viability, T/C [35] was 13.4% and the viability, T/C [36] was 9.54%.
For `CCN1CCN(Cc2ccc(Nc3ncc(F)c(-c4cc(F)c5nc(C)n(C(C)C)c5c4)n3)nc2)CC1` + CNC(=O)c1ccc(Nc2nc(OC3CCCC3)c3c(-c4ccc5nc(C)oc5c4)c[nH]c3n2)c(OC)c1, the IC50 (second compound 0.0316 µM) was greater than 1000 nM, the IC50 (second compound 0.1 µM) was greater than 1000 nM and the IC50 (second compound 0.316 µM) was 297 nM. For the same compound, the IC50 (second compound 1 µM) was less than 3.16 nM, the IC50 (second compound 3.16 µM) was less than 3.16 nM and the IC50 (second compound 10 µM) was less than 3.16 nM. For the same compound, the viability, T/C (second compound 0.0316 µM, first compound 0.00316 µM) was 106%, the viability, T/C (second compound 0.0316 µM, first compound 0.01 µM) was 93.2% and the viability, T/C [1] was 98.5%. It also gave a viability, T/C [2] of 88.5%, a viability, T/C [3] of 69% and a viability, T/C [4] of 59.9%. For the same compound, the viability, T/C (second compound 0.1 µM, first compound 0.00316 µM) was 103%, the viability, T/C (second compound 0.1 µM, first compound 0.01 µM) was 93.4% and the viability, T/C [7] was 92.4%. The viability, T/C [8] was 76.7%, the viability, T/C [9] was 66.9% and the viability, T/C [10] was 53.8%. It also gave a viability, T/C (second compound 0.316 µM, first compound 0.00316 µM) of 58%, a viability, T/C (second compound 0.316 µM, first compound 0.01 µM) of 59.2% and a viability, T/C [13] of 57.4%. It also gave a viability, T/C [14] of 56.4%, a viability, T/C [15] of 45.5% and a viability, T/C [16] of 45.7%. The viability, T/C (second compound 1 µM, first compound 0.00316 µM) was 35.6%, the viability, T/C (second compound 1 µM, first compound 0.01 µM) was 33.6% and the viability, T/C [19] was 33.6%. The viability, T/C [20] was 35.9%, the viability, T/C [21] was 30.5% and the viability, T/C [22] was 38.1%. The viability, T/C (second compound 3.16 µM, first compound 0.00316 µM) was 29.4%, the viability, T/C (second compound 3.16 µM, first compound 0.01 µM) was 27.9% and the viability, T/C [25] was 30.5%. The viability, T/C [26] was 31.5%, the viability, T/C [27] was 31.6% and the viability, T/C [28] was 35.5%. For the same compound, the viability, T/C (second compound 10 µM, first compound 0.00316 µM) was 28.6%, the viability, T/C (second compound 10 µM, first compound 0.01 µM) was 29.2% and the viability, T/C [31] was 31.9%. For the same compound, the viability, T/C [32] was 29%, the viability, T/C [33] was 38.4% and the viability, T/C [34] was 36.3%.
In the case of `Nc1ccccc1NC(=O)c1ccc(CNC(=O)OCc2cccnc2)cc1` + CNC(=O)c1ccc(Nc2nc(OC3CCCC3)c3c(-c4ccc5nc(C)oc5c4)c[nH]c3n2)c(OC)c1, the IC50 (second compound 0.0316 µM) is reported as greater than 10000 nM, the IC50 (second compound 0.1 µM) is reported as 6250 nM and the IC50 (second compound 0.316 µM) is reported as 2290 nM. For the same compound, the IC50 (second compound 1 µM) was less than 31.6 nM, the IC50 (second compound 3.16 µM) was less than 31.6 nM and the IC50 (second compound 10 µM) was less than 31.6 nM. The viability, T/C [1] was 106%, the viability, T/C [2] was 99.7% and the viability, T/C [3] was 93.3%. It also gave a viability, T/C [4] of 86.6%, a viability, T/C [5] of 65.1% and a viability, T/C [6] of 52.1%. For the same compound, the viability, T/C [7] was 106%, the viability, T/C [8] was 93.8% and the viability, T/C [9] was 97.7%. The viability, T/C [10] was 77.4%, the viability, T/C [11] was 58.4% and the viability, T/C [12] was 44.4%. The viability, T/C [13] was 59.1%, the viability, T/C [14] was 50% and the viability, T/C [15] was 57.9%. The viability, T/C [16] was 51.9%, the viability, T/C [17] was 49.3% and the viability, T/C [18] was 34.4%. The viability, T/C [19] was 37.6%, the viability, T/C [20] was 37% and the viability, T/C [21] was 31.9%. It also gave a viability, T/C [22] of 34.4%, a viability, T/C [23] of 31.9% and a viability, T/C [24] of 8.75%. It also gave a viability, T/C [25] of 29%, a viability, T/C [26] of 30.7% and a viability, T/C [27] of 27.9%. The viability, T/C [28] was 31.5%, the viability, T/C [29] was 24.8% and the viability, T/C [30] was 6.59%. It also gave a viability, T/C [31] of 28.8%, a viability, T/C [32] of 24.2% and a viability, T/C [33] of 24.8%. It also gave a viability, T/C [34] of 30.1%, a viability, T/C [35] of 17.2% and a viability, T/C [36] of 5.11%.
